# Experimental data as given in article PMC4335978, “Regulation of nitrite resistance of the cytochrome cbb3 oxidase by cytochrome c ScyA in Shewanella oneidensis” (MicrobiologyOpen, 2014).
# Assays:
# [1] = biological target: T1, bd oxidase (cytochrome bd) (Shewanella oneidensis, UniProt Q8EC58); test: oxygen consumption (O2 electrode), membranes of Δcco strain; format: biochemical; details: ~70 μmol/L O2; ubiquinol-1 as electron donor; no added ScyA
# T1 construct: gene cydA; native cydABX complex in membrane preparations of S. oneidensis Δcco strain (cbb3 oxidase absent), not purified, no tag; with Cytochrome bd ubiquinol oxidase subunit II CydB; Cytochrome bd oxidase small subunit CydX
# T1 sequence (Q8EC58 1-518): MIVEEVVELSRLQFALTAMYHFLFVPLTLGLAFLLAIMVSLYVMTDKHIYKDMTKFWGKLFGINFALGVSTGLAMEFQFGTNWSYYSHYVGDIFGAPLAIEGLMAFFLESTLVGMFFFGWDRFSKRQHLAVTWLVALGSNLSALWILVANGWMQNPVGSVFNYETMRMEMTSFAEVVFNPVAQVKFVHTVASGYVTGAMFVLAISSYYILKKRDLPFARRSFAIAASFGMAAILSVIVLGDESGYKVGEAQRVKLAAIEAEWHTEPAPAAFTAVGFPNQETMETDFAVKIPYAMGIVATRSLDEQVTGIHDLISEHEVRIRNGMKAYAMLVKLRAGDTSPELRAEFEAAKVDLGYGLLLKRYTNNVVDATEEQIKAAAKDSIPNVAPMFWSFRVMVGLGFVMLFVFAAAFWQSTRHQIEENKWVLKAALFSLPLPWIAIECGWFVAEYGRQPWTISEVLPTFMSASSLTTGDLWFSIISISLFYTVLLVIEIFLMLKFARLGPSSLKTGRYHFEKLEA
# T1 sequence (Q8EC59 1-379 partner): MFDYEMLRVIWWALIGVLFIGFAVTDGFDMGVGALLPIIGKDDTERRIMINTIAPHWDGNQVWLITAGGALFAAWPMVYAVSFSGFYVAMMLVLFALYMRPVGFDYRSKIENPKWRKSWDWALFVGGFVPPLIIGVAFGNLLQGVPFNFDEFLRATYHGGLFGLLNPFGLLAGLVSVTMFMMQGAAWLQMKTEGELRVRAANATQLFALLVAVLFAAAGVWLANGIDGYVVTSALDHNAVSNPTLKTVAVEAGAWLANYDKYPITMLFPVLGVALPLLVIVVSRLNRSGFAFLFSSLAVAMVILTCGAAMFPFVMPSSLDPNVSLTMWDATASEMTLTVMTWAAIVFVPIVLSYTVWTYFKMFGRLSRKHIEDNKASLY
# T1 sequence (Q8EC60 1-38 partner): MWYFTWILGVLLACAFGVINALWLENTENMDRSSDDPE
# [2] = biological target: T2, cbb3-HCO (cytochrome cbb3 oxidase) (Shewanella oneidensis, UniProt Q8EEL5); test: oxygen consumption (O2 electrode), membranes of Δcyd strain; format: biochemical; details: ~70 μmol/L O2; ascorbate + TMPD as electron donor; no added ScyA
# T2 construct: gene ccoN; native ccoNOQP complex in membrane preparations of S. oneidensis Δcyd strain (bd oxidase absent), not purified, no tag; with Cbb3-type cytochrome c oxidase subunit II CcoO; Cbb3-type cytochrome c oxidase subunit III CcoP; Cbb3-type cytochrome c oxidase subunit IV CcoQ
# T2 sequence (Q8EEL5 1-478): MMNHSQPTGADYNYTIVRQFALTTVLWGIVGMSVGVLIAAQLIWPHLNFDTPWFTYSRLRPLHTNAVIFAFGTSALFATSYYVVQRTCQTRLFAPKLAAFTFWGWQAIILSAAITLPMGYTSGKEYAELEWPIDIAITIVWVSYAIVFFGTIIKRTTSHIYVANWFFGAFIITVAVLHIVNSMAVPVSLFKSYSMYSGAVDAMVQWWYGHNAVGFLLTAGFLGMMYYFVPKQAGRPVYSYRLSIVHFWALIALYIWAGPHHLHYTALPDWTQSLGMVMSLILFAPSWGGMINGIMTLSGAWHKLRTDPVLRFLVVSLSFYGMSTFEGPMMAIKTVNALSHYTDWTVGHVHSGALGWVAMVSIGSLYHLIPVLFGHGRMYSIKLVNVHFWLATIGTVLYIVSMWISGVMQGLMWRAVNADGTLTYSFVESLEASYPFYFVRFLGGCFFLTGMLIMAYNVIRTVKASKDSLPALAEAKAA
# T2 sequence (Q8EEL6 1-208 partner): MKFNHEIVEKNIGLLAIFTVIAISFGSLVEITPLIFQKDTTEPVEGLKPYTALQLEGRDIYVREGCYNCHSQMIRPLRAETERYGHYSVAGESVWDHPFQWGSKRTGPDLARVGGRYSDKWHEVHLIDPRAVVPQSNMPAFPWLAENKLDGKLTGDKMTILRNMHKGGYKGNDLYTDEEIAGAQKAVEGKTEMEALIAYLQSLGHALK
# T2 sequence (Q8EEL8 1-322 partner): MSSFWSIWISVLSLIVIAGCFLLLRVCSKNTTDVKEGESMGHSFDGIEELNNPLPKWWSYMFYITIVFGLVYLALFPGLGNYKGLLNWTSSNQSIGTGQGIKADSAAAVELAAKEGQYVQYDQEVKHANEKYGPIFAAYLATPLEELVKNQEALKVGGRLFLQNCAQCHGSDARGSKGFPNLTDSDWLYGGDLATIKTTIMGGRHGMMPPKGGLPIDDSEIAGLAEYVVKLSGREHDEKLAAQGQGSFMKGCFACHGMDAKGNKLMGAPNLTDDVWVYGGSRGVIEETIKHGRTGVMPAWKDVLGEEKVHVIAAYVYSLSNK
# T2 sequence (Q8EEL7 1-58 partner): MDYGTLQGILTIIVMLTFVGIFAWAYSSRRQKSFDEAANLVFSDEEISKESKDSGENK
smiles,measurement,setting,value
O=NO [nitrite],IC50,[1],~180 nM
same,IC50,[2],~50 nM
